Reference: ChEMBL document CHEMBL2203257 (Bioorg Med Chem Lett, 2012)

What was measured:
[1] = target: Phosphatidylinositol 4,5-bisphosphate 3-kinase catalytic subunit gamma isoform (Homo sapiens, UniProt P48736); assay: Inhibition of PI3Kgamma by kinobeads assay
[2] = target: Phosphatidylinositol 4,5-bisphosphate 3-kinase catalytic subunit alpha isoform (Homo sapiens, UniProt P42336); assay: Inhibition of PI3Kalpha assessed as change in pIC50 by kinobeads assay
[3] = target: Phosphatidylinositol 4,5-bisphosphate 3-kinase catalytic subunit beta isoform (Homo sapiens, UniProt P42338); assay: Inhibition of PI3Kbeta assessed as change in pIC50 by kinobeads assay
Chain of Phosphatidylinositol 4,5-bisphosphate 3-kinase catalytic subunit beta isoform (P42338 whole entry, canonical isoform): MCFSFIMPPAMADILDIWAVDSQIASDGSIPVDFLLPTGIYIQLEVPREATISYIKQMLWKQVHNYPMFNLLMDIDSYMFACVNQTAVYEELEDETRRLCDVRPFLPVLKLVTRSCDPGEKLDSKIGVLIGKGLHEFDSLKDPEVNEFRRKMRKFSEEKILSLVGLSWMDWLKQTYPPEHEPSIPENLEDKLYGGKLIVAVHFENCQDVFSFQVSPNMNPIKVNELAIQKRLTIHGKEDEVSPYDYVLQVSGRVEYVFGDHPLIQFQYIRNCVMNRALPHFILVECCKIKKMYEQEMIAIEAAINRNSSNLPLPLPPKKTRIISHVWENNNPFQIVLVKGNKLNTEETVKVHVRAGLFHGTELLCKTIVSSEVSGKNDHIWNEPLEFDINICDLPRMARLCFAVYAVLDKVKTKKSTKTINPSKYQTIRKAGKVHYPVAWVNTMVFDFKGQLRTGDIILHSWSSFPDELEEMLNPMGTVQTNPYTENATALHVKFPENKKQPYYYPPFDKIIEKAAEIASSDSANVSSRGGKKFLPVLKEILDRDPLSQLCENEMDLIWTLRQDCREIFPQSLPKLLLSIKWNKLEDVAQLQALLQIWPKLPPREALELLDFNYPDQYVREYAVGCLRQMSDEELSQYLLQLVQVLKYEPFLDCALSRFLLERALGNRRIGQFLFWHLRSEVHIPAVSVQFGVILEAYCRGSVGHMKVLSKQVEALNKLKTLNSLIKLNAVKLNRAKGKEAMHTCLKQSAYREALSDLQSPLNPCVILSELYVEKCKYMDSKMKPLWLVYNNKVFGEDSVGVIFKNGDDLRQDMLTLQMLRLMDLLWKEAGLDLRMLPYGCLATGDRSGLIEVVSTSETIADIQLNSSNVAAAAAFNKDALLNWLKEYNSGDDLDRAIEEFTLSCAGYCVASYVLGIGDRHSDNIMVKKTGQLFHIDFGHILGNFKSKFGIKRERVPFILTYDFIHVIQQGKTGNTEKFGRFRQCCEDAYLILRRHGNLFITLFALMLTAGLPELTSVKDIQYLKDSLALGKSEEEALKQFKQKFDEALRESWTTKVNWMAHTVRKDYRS

[4] = target: T1, Phosphatidylinositol 4,5-bisphosphate 3-kinase catalytic subunit delta isoform (Homo sapiens, UniProt O00329); assay: Inhibition of PI3Kdelta assessed as change in pIC50 by kinobeads assay
T1 sequence (O00329 whole entry): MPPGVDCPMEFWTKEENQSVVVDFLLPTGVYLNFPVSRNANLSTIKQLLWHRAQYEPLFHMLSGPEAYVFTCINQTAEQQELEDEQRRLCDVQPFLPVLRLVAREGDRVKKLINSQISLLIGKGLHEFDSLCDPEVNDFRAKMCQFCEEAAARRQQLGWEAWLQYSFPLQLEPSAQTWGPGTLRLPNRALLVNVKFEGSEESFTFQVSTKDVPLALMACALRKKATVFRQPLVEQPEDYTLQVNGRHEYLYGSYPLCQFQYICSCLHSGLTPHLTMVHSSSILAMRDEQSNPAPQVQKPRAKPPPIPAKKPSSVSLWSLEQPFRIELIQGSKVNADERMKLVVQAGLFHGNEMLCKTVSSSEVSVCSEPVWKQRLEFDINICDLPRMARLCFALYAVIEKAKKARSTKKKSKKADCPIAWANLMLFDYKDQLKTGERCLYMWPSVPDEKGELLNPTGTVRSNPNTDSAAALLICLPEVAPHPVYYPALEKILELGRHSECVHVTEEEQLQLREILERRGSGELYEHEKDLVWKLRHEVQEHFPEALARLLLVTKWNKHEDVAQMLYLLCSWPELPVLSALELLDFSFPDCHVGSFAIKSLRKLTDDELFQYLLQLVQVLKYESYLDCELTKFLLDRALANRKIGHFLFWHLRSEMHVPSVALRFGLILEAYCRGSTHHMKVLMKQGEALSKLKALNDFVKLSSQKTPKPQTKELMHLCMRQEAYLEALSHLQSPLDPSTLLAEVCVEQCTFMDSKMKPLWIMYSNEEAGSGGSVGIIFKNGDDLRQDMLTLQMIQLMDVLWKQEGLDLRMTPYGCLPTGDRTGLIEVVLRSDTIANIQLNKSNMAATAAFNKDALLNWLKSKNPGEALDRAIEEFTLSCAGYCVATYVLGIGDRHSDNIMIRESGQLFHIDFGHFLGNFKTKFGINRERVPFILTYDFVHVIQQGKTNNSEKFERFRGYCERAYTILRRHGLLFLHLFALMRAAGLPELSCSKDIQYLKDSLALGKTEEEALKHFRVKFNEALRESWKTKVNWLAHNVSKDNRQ

Mus musculus = assay: Antiinflammatory activity in mouse IL-8-induced air-pouch model assessed as inhibition of granulocyte migration at 3 mg/kg, po; parameters: scale not given: the % may be the effect or the level left
[5] = target: Phosphatidylinositol 4,5-bisphosphate 3-kinase catalytic subunit delta isoform/gamma isoform (Homo sapiens, UniProt P48736+O00329); assay: Inhibition of PI3Kgamma/delta by neutrophil migration assay
Hepatocyte [6] = assay: Metabolic stability in human hepatocytes measured per gram of tissue; format: ADME, cell-based
Hepatocyte [7] = assay: Metabolic stability in rat hepatocytes measured per gram of tissue; format: ADME, cell-based
Hepatocyte [8] = assay: Metabolic stability in mouse hepatocytes measured per gram of tissue; format: ADME, cell-based
Liver microsomes = assay: Volume of distribution at steady state […] at 5 mg/kg, po; format: ADME, organism-based; parameters: dose 5 mg/kg, route oral
[9] = Half life in rat […] at 5 mg/kg, po; format: ADME, organism-based; parameters: dose 5 mg/kg, route oral
[10] = Cmax in rat […] at 5 mg/kg, po; format: ADME, organism-based; parameters: dose 5 mg/kg, route oral
[11] = AUC in rat […] at 5 mg/kg, po; format: ADME, organism-based; parameters: dose 5 mg/kg, route oral
[12] = Oral bioavailability in Wistar rat at 5 mg/kg; settings: in vivo

Chain of Phosphatidylinositol 4,5-bisphosphate 3-kinase catalytic subunit gamma isoform (P48736 whole entry, canonical isoform): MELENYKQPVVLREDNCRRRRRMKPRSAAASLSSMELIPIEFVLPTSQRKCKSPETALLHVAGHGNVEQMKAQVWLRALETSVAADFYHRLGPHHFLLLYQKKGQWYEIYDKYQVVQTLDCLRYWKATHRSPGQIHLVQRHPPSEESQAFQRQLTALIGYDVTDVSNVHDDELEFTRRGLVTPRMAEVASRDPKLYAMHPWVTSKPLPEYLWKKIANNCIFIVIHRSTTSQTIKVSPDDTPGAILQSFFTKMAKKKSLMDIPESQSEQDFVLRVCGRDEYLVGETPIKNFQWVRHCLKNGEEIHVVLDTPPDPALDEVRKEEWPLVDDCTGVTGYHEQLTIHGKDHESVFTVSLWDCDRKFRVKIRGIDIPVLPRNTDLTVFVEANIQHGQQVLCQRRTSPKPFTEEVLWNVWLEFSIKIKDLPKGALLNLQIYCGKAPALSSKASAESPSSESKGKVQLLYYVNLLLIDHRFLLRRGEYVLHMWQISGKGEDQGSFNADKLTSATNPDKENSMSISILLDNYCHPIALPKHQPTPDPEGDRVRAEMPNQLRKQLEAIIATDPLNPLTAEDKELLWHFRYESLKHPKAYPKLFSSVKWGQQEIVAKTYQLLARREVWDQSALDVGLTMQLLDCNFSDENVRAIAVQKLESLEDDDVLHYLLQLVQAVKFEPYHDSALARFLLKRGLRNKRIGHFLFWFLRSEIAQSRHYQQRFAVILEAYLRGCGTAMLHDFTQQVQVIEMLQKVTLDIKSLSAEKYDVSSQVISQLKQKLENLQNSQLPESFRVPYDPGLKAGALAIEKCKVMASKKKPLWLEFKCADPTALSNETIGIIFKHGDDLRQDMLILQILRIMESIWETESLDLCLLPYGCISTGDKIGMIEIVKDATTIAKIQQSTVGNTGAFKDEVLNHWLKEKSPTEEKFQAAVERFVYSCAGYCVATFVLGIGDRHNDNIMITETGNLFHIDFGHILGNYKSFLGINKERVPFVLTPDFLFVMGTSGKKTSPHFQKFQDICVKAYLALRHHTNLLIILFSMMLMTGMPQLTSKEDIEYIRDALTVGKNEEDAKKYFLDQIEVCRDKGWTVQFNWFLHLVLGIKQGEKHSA
Chain of Phosphatidylinositol 4,5-bisphosphate 3-kinase catalytic subunit alpha isoform (P42336 whole entry, canonical isoform): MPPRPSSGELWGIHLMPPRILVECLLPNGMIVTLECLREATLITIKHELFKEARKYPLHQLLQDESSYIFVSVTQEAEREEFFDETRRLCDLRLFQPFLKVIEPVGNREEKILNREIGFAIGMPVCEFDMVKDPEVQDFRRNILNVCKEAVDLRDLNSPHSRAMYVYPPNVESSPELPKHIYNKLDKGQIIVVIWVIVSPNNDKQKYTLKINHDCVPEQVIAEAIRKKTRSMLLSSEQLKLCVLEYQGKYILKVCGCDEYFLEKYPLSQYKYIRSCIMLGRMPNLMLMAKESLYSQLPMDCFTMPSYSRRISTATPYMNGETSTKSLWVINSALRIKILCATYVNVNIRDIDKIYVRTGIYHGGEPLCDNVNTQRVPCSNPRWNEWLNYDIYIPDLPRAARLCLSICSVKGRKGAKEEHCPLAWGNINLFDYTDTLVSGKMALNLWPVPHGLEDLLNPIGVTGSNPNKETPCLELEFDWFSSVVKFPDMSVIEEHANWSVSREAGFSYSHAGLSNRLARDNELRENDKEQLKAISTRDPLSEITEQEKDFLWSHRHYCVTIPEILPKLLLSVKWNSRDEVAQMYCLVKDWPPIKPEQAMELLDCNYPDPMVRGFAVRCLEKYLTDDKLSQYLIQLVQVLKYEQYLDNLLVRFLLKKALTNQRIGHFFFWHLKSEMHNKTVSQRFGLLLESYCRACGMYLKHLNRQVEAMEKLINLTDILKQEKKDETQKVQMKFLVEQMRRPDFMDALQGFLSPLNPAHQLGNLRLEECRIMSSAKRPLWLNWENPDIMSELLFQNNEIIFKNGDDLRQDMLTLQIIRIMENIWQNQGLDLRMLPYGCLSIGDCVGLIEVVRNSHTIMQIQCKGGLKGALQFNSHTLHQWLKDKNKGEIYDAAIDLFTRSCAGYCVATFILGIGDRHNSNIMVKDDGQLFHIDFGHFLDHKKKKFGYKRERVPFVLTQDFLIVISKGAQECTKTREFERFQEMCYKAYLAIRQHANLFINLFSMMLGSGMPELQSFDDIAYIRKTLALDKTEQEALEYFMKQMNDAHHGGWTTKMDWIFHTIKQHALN

Compound	IC50 [1] [µM]	pIC50 [5]	also measured
CC(C)(C)NS(=O)(=O)c1cncc(-c2cc(F)c3nc(N)nn3c2)c1	0.0251		IC50 [2]: > 10 µM; IC50 [3]: 1 µM; IC50 [4]: 7.94 µM; Activity (Mus musculus): 29%
CC(C)(C)NS(=O)(=O)c1cncc(-c2cc(F)n3nc(N)nc3c2)c1	0.0158	6.1	CLint (Hepatocyte [6]): 2.5 mL/min/g; CLint (Hepatocyte [7]): 7.5 mL/min/g; CLint (Hepatocyte [8]): 36.1 mL/min/g
CCCNS(=O)(=O)c1cncc(-c2ccn3nc(N)nc3c2)c1	0.0316	6.2	IC50 [4]: < 20000 µM
Nc1nc2cc(-c3cncc(S(=O)(=O)NCC(F)(F)F)c3)ccn2n1	0.02	5.9	
CC(C)(NS(=O)(=O)c1cncc(-c2ccn3nc(N)nc3c2)c1)C(F)(F)F	0.02	5.6	
CCN(CC)S(=O)(=O)c1cncc(-c2ccn3nc(N)nc3c2)c1	0.00794	5.9	
CC1(C)CCN1S(=O)(=O)c1cncc(-c2ccn3nc(N)nc3c2)c1	0.0251	5.7	

Further lines, with some results ahead:

IC50 [1] [µM]	pIC50 [5]	Compound	also measured
0.0794		CS(=O)(=O)c1cncc(-c2ccn3nc(N)nc3c2)c1	
0.0251	6.3	CC(C)NS(=O)(=O)c1cncc(-c2ccn3nc(N)nc3c2)c1	
0.0398	5	Nc1nc2cc(-c3cncc(S(=O)(=O)Nc4ccccc4)c3)ccn2n1	
0.1		Nc1nc2cc(-c3cncc(S(=O)(=O)NCc4ccccc4)c3)ccn2n1	
0.02	6.1	Nc1nc2cc(-c3cncc(S(N)(=O)=O)c3)ccn2n1	
0.0251	6.3	CNS(=O)(=O)c1cncc(-c2ccn3nc(N)nc3c2)c1	Vdss (Liver microsomes): 2.2 L/kg; half-life [9]: 1.2 h; Cmax [10]: 5 µM; AUC [11]: 6.7 µM·h; bioavailability [12]: 56%
